Values quoted from earlier work, collected in patent US20160165928A1, “METHODS OF REDUCING METHANE EMISSION DERIVED FROM RUMINAL FERMENTATION WHILE SIMULTANEOUSLY REDUCING RISK OF NITRATE INTOXICATION” (Grasp Indústria e Comércio Ltda., priority 2011, published 2016).

Assays:
[1] = system: methane produced by rumen fermentation; settings: in vivo
[2] = system: ruminal accumulation of nitrite; settings: in vivo
[3] = system: nitrate reductase

Structure (SMILES) | methane emission in ruminants [1] | ruminal accumulation of nitrite [2] | further results
O=[N+]([O-])[O-].O=[N+]([O-])[O-].[Ca+2] [calcium nitrate] | reduced methane emission |  | 
O=S(=O)([O-])[O-].[Cu+2] [copper sulfate] |  | reduction of ruminal accumulation of nitrite | intoxication risks [2]: minimization of intoxication risks
O=S(=O)([O-])[O-].[Mg+2] [magnesium sulfate] |  | reduction of ruminal accumulation of nitrite | 
O=[N+]([O-])[O-].[K+] [potassium nitrate] | reduced methane emission |  | 
O=[N+]([O-])[O-].[Na+] [sodium nitrate] | reduced methane emission |  | 
O=S(=O)([O-])[O-].[Na+].[Na+] [sodium sulfate] |  | reduction of ruminal accumulation of nitrite | 
[Na+].[Na+].[O]=[W](=[O])([O-])[O-] [sodium tungstate] |  |  | inhibition of nitrate reductase [3]: inhibit nitrate reductase
